pIC50: −log10 of the molar value.
Columns and labels:
[1] = target: IL-17A(FLAG-tagged): IL-17RA(His-tagged) (Homo sapiens, UniProt Q16552, K93Q); test: IL-17A(FLAG-tagged): IL-17RA(His-tagged) binding disruption Eu-HTRF assay; conditions: class of the average IC50 where tested more than once
Excerpt: IL-17A(FLAG-tagged): IL-17RA(His-tagged) binding disruption Eu-HTRF assay An antibody directed against the FLAG tag of IL-17A (SEQ ID NO: 1) is labeled with the HTRF donor chromophore (Europium-cryptate). IL-17A is present as a dimer that is “locked into” this quaternary structure due to the formation of loop-spanning intramolecular disulfide bridges. The construct of IL-17RA used in the assay excludes the […] portion of the receptor and is fused to a C-terminal 10×His tag (SEQ ID NO:2). An antibody directed against the His tag of the IL-17RA chimera is labeled with the HTRF acceptor chromophore (“D2”). The fluorescence-resonance energy transfer (FRET) depends on the vicinity of the donor chromophore to the acceptor, and interruption of the binding between the IL-17A and IL-17RA causes the reduction/loss of FRET. Therefore, this assay allows to evaluate the compound effect on the binding IL-17A and IL-17RA by monitoring the fluorescence intensity of donor vs acceptor. The assay is run as described below.
40 nl of 2-fold serial diluted compound solution for total 22 dilution points is added into each well of a 1536-well, white, low-volume, non-binding plate (Greiner #782904), then 2 μl of FLAG tagged IL-17A at 2× final concentration (1 μM) in solution of PBS+0.01% Triton-X100 is added to each well. The assay plate is briefly centrifuged then incubated for 1 h at rt. A mixed solution is prepared containing 2×5 nM 10HIS×IL-17RA, 2×2.5 nM Eu-anti-FLAG (CISBIO), 2×5 nM D2-anti-HIS (CISBIO) in PBS+0.01% Triton-X100+200 mM Potassium Fluoride (Sigma 60238) and 2 μl of mix is added to each well of the assay plate. The plate is briefly centrifuged then incubated for 2 h at rt. The HTRF intensities at the wavelength of donor (615 nm) and acceptor (665 nm) are measured using BMG Pherastar. The ratio between intensities at two wavelengths is calculated and plotted against the compound concentration and the data is fitted to a one-site competition model to yield IC50 of the compound.

[2] = tested on: IL-17A-induced G-CSF production in human normal keratinocyte (NHK); test: NHK assay: IL-17A-induced G-CSF production in normal human keratinocytes; assay type: cell-based; conditions: 24 h, IL-17A 5 ng/mL, class of the average IC50 where tested more than once
Method: IL-17A acts directly on keratinocytes through binding to dimeric receptor IL-17RA/RC and drives the production of a number of inflammatory mediators known to be elevated in psoriasis lesional tissue. IL-17A small molecule inhibitors that block the IL-17A to interact with IL-17R would inhibit the IL-17A signaling in its targeted cells such as keratinocytes. The compound functional activity is evaluated for its impact on IL-17A-induced G-CSF production in human normal keratinocyte (NHK).
Adult normal human keratinocytes are cultured in keratinocyte growth medium (Lonza) in a flask till reaching ~90% confluence, then cells are transferred to a 384-well plate at density of 3000-4000 cell/well. Recombinant human IL-17A (Gibco PHC9174) is pre-incubated with titrated compound or DMSO for 1 h at rt then added to the cell culture plate. The final concentration of IL-17A is 5 ng/mL and DMSO is 0.2%, in the culture containing 5% FBS. Cells are cultured/treated for 24 h at 37° C. Supernatants are collected and G-CSF production is measured through HTRF technology using Human G-CSF Kit (CisBio). G-CSF concentration was extrapolated from the standard curve and IC50 is determined using GraphPad Prism. Cell viability is also evaluated using CellTiter-Glo kit (Promega) and effect of compound on cell viability is compared to DMSO control.

UniProt Q16552, sequence (Q16552 with tags, fused parts or gaps K93Q): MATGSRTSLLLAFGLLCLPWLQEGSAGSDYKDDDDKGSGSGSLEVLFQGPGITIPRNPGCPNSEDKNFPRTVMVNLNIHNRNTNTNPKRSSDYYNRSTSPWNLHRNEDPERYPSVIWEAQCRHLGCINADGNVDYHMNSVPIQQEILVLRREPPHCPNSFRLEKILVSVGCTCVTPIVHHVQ

| Compound | pIC50 [1] | pIC50 ([2]; Homo sapiens, Keratinocyte) | pIC50 [2] |
| --- | --- | --- | --- |
| O=C(N[C@H](c1cn2ncc([C@H](O)[C@@H]3C[C@@H](C(F)(F)F)NC3=O)cc2n1)C1CCC(F)(F)CC1)c1nonc1C1CC1 (relative stereo) [Example 75, 4-Cyclopropyl-N—((S)-(4,4-difluorocyclohexyl)(7-((R*)-hydroxy((3S*,5S*)-2-oxo-5-(trifluoromethyl)pyrrolidin-3-yl)methyl)imidazo[1,2-b]pyridazin-2-yl)methyl)-1,2,5-oxadiazole-3-carboxamide] | > 6.40 | > 6.40 |  |
| O=C(N[C@H](c1cn2ncc(C(O)C3CC(C(F)(F)F)NC3=O)cc2n1)C1CCC(F)(F)CC1)c1nonc1C1CC1 (stereo partly drawn) [Example 61, 4-Cyclopropyl-N—[(S)-(4,4-difluorocyclohexyl)-[7-[hydroxy-[2-oxo-5-(trifluoromethyl)pyrrolidin-3-yl]methyl]imidazo[1,2-b]pyridazin-2-yl]methyl]-1,2,5-oxadiazole-3-carboxamide] | 5.40 to 6.40 | > 6.40 |  |
| Cc1nonc1C(=O)N[C@H](c1cn2ncc(CC3C[C@@H](C(F)(F)F)NC3=O)cc2n1)C1CCC(F)(F)CC1 (single isomer, unassigned) [Example 9, N—[(S)-(4,4-Difluorocyclohexyl)-[7-[[(3S*,5S)-2-oxo-5-(trifluoromethyl)pyrrolidin-3-yl]methyl]imidazo[1,2-b]pyridazin-2-yl]methyl]-4-methyl-1,2,5-oxadiazole-3-carboxamide] | > 6.40 |  | > 6.40 |
| Cc1nonc1C(=O)N[C@H](c1cn2ncc(CC3C[C@@H](C(F)(F)F)NC3=O)cc2n1)C1CCC(F)(F)CC1 (single isomer, unassigned) [Example 10, N—[(S)-(4,4-Difluorocyclohexyl)-[7-[[(3R*,5S)-2-oxo-5-(trifluoromethyl)pyrrolidin-3-yl]methyl]imidazo[1,2-b]pyridazin-2-yl]methyl]-4-methyl-1,2,5-oxadiazole-3-carboxamide] | < 5.40 |  | < 5.40 |
| O=C(N[C@H](c1cn2ncc([C@@H](O)[C@@H]3C[C@H](C(F)(F)F)NC3=O)cc2n1)C1CCC(F)(F)CC1)c1nonc1C1CC1 (single isomer, unassigned) [Example 76] | < 5.40 | 5.40 to 6.40 |  |
| C[C@@H](c1cnn2cc([C@@H](NC(=O)c3nonc3C3CC3)C3CCC(F)(F)CC3)nc2c1)[C@H]1C[C@@H](C(F)(F)F)NC1=O (relative stereo) [Example 78, 4-Cyclopropyl-N—((S)-(4,4-difluorocyclohexyl)(7-((R*)-1-((3R*,5S)-2-oxo-5-(trifluoromethyl)pyrrolidin-3-yl)ethyl)imidazo[1,2-b]pyridazin-2-yl)methyl)-1,2,5-oxadiazole-3-carboxamide] | < 5.40 | < 5.40 |  |
| O=C(N[C@H](c1cn2ncc(C[C@@H]3C[C@H](C(F)(F)F)NC3=O)cc2n1)C1CCC(F)(F)CC1)c1nonc1C1CC1 (relative stereo) [Example 68, 4-Cyclopropyl-N—((S)-(4,4-difluorocyclohexyl)(7-(((3R*,5R*)-2-oxo-5-(trifluoromethyl)pyrrolidin-3-yl)methyl)imidazo[1,2-b]pyridazin-2-yl)methyl)-1,2,5-oxadiazole-3-carboxamide] | 5.40 to 6.40 | 5.40 to 6.40 |  |
| C[C@@]1(C(F)(F)F)CC(Cc2cnn3cc([C@@H](NC(=O)c4nonc4C4CC4)C4CCC(F)(F)CC4)nc3c2)C(=O)N1 (single isomer, unassigned) [Example 56, 4-Cyclopropyl-N—((S)-(4,4-difluorocyclohexyl)(7-(((3R*,5S)-5-methyl-2-oxo-5-(trifluoromethyl)pyrrolidin-3-yl)methyl)imidazo[1,2-b]pyridazin-2-yl)methyl)-1,2,5-oxadiazole-3-carboxamide] | 5.40 to 6.40 |  | 5.40 to 6.40 |
| O=C(N[C@H](c1cn2ncc(C[C@@H]3C(=O)NCC[C@@H]3C(F)(F)F)cc2n1)C1CCC(F)(F)CC1)c1nonc1C1CC1 (relative stereo) [Example 45, 4-Cyclopropyl-N—((S)-(4,4-difluorocyclohexyl)(7-(((3S*,4S*)-2-oxo-4-(trifluoromethyl)piperidin-3-yl)methyl)imidazo[1,2-b]pyridazin-2-yl)methyl)-1,2,5-oxadiazole-3-carboxamide] | 5.40 to 6.40 | < 5.40 |  |
| O=C(N[C@H](c1cn2ncc(CC3C(=O)NCC3C(F)(F)F)cc2n1)C1CCC(F)(F)CC1)c1nonc1C1CC1 (single isomer, unassigned) [Example 50] | 5.40 to 6.40 | < 5.40 |  |
| CC(C)[C@@H]1C[C@H](Cc2cnn3cc([C@@H](NC(=O)c4nonc4C4CC4)C4CCC(F)(F)CC4)nc3c2)C(=O)N1 (relative stereo) [Example 96, 4-Cyclopropyl-N—[(S)-(4,4-difluorocyclohexyl)-[7-[[(3S*,5S*)-5-isopropyl-2-oxo-pyrrolidin-3-yl]methyl]imidazo[1,2-b]pyridazin-2-yl]methyl]-1,2,5-oxadiazole-3-carboxamide] | < 5.40 | < 5.40 |  |
| O=C(N[C@H](c1cn2ncc(C[C@@]34CCC[C@H](C3)NC4=O)cc2n1)C1CCC(F)(F)CC1)c1nonc1C1CC1 (single isomer, unassigned) [Example 11] | > 6.40 | > 6.40 |  |
| COc1nonc1C(=O)N[C@@H](CCC(C)(C)C(F)(F)F)c1cn2ncc(CC3C[C@@H](C(F)(F)F)NC3=O)cc2n1 (single isomer, unassigned) [Example 5, 4-Methoxy-N-[(1S)-5,5,5-trifluoro-4,4-dimethyl-1-[7-[[(3R*,5S)-2-oxo-5-(trifluoromethyl)pyrrolidin-3-yl]methyl]imidazo[1,2-b]pyridazin-2-yl]pentyl]-1,2,5-oxadiazole-3-carboxamide] | < 5.40 |  | < 5.40 |
| COc1nonc1C(=O)N[C@H](c1cn2ncc(CC3C[C@@H](C(F)(F)F)NC3=O)cc2n1)C1CCC(F)(F)CC1 (single isomer, unassigned) [Example 8, N—((S)-(4,4-Difluorocyclohexyl)(7-(((3S*,5S)-2-oxo-5-(trifluoromethyl)pyrrolidin-3-yl)methyl)imidazo[1,2-b]pyridazin-2-yl)methyl)-4-methoxy-1,2,5-oxadiazole-3-carboxamide] | < 5.40 |  | < 5.40 |
| O=C(N[C@H](c1cn2ncc(CC3CC4(COC4)NC3=O)cc2n1)C1CCC(F)(F)CC1)c1nonc1C1CC1 (stereo partly drawn) [Example 98, 4-Cyclopropyl-N-((1S)-(4,4-difluorocyclohexyl)(7-((6-oxo-2-oxa-5-azaspiro[3.4]octan-7-yl)methyl)imidazo[1,2-b]pyridazin-2-yl)methyl)-1,2,5-oxadiazole-3-carboxamide] | < 5.40 | < 5.40 |  |
| C[C@H]1CNC(=O)[C@H]1Cc1cnn2cc([C@@H](NC(=O)c3nonc3C3CC3)C3CCC(F)(F)CC3)nc2c1 (relative stereo) [Example 86, 4-Cyclopropyl-N—[(S)-(4,4-difluorocyclohexyl)-[7-[[(3S*,4R*)-4-methyl-2-oxo-pyrrolidin-3-yl]methyl]imidazo[1,2-b]pyridazin-2-yl]methyl]-1,2,5-oxadiazole-3-carboxamide] | 5.40 to 6.40 | < 5.40 |  |
